Structures can show the parent of a compound that is named as a salt.
Columns and labels:
[1] = test system: male ICR mice; assay: Test 1: Prolongation of Bleeding Time in Mice; format: in vivo, mouse (ICR); details: oral, 3 days (48, 24 and 4 hours before), ratio test compound-treated to control, cut-off 300 seconds
Method: Prolongation of Bleeding Time in Mice Groups of 10 male ICR mice (Charles River Japan Inc.) were used in the experiment. Test compound suspended in 5% gum arabic solution was orally administered for 3 days (48, 24 and 4 hours before the experiment). Each mouse was placed in a retainer, and the tail was transected at 5 mm from the tip, and then the tail (2 cm) was immersed in saline solution warmed at 37° C. Bleeding time was defined as the interval between the time of transection until bleeding stopped over a 15 seconds period. Bleeding times beyond 5 minutes were recorded as 5 minutes (300 seconds). Results were expressed as ratios of bleeding times of test compound-treated to non-treated (control) groups in which mice received 5% gum arabic solution.

[2] = test system: platelet aggregation; assay: Test 2: Antiaggregatory Action in Rats (ex vivo platelet aggregation in citrated blood, ADP or collagen); details: Rattus norvegicus, oral, 4 hours before, female SD rats, induced by ADP or collagen (which one not given)
Method: Antiaggregatory Action in Rats
Groups of 4 female SD rats (Charles River Japan Inc.) were used in the experiment Test compound suspended in 5% gum arabic solution was orally administered to rats 4 hours before the experiment. Control rats received 5% gum farabic solution. Platelet aggregation was measured according to the method of P. Lumley and P. P. A. Humphrey (J. Pharmacol. Methods, 6, 153-166 (1981)) with a slight modification. Blood (5.4 ml) was collected from the abdominal aorta of anesthetized rats using 3.8% (w/v) sodium citrate solution (0.6 ml) as an anticoagulant. An aliquot of citrated blood (1.2 ml) added to the cuvette was stirred (1000 rpm) at 37° C. Two minutes later, blood (0.3 ml) was taken from the cuvette, and the number of platelets was measured by an automatic hematology analyzer (E-4000, Toa Iyo Denshi), which was designated as the pre-aggregation number of platelets. To the remaining blood (0.9 ml) in the cuvette were added 0.1 ml of 0.05 mM adenosine-5'-diphosphate (ADP) or 0.06 mg/ml collagen to induce platelet aggregation. Two minutes after the addition of ADP or 4 minutes after the addition of collagen, blood (0.3 ml) was taken from the cuvette, and the number of platelets was measured, which was designated as the post-aggregation number of platelets. Platelet aggregation (%) was determined by the following equation:
100×(pre-aggregation number of platelets-post-aggregation number of
platelets)/pre-aggregation number of platelets
Antiaggregatory action of the test compound was determined comparing platelet aggregation of test compound-treated rats to that of control rats (without administration of test compound).

[3] = test system: Human Platelets; assay: Test 3: Antiaggregatory Action in Human Platelets (PRP, ADP-induced aggregation); format: cell-based; details: Platelet, 37° C.; for inhibition at 10 µg/mL: 10 μg/ml; for inhibition at 30 µg/mL: 30 μg/ml
Method: Antiaggregatory Action in Human Platelets
Platelet aggregation was measured using an automatic platelet aggregometer (PAM-8C, Mebanix) by the method of G.V.R. Born (Nature, 194, 927-929 (1962)) with a slight modification. Blood was collected from the antecubital vein of healthy volunteers who had not taken any medications for 2 weeks using 3.8% sodium citrate as an anticoagulant (1/9 volume of blood). Platelet-rich plasma (PRP) was obtained by centrifugation (CR5DL, Hitachi) at 200×g for 15 minutes at room temperature. Platelet-poor plasma (PPP) was obtained by further centrifugation of the remained blood at 2000×g for 10 minutes at room temperature. The number of platelets in PRP was measured by an automatic hematology analyzer (K-1000, Toa Iyo Denshi), and adjusted to 3×10^8 /ml using PPP. PRP prepared as described above was used for the platelet aggregation experiment. PRP (0.24 ml) was added to the cuvette and set in the platelet aggregometer. After pre-incubation for 1.5 minutes at 37° C., 0.01 ml of 0.25 mM ADP were added to the cuvette to initiate platelet aggregation. Platelet aggregation was monitored for 10 minutes.
Antiaggregatory action of test compound was expressed as inhibition (%) of aggregation comparing platelet aggregation of test compound to that of control (without addition of test compound).

Row | Structure (SMILES) | bleeding time extending ratio ([1]; 10 mg/kg) | bleeding time extending ratio ([1]; 30 mg/kg) | inhibition at 10 mg/kg [2] [%] | inhibition at 30 mg/kg [2] [%] | inhibition at 10 µg/mL [3] [%] | inhibition at 30 µg/mL [3] [%]
1 | CC(=O)SC1CCN(C(C(=O)C2CC2)c2ccccc2F)CC1 (stereo not drawn) [Example 1(a), 4-Acetylthio-1-(α-cyclopropylcarbonyl-2-fluorobenzyl)piperidine] | 1.06 | 2.06 | 5.7 | 23.3 | – | –
2 | Cl.O=C(C1CC1)C(c1ccccc1F)N1CCC(S)CC1 (stereo not drawn) [Example 1(b), 1-(α-Cyclopropylcarbonyl-2-fluorobenzyl)-4-mercaptopiperidine hydrochloride] | – | 1.46 | – | – | 48.6 | 70.6
3 | CCOC(=O)/C=C1\CN(C(C(=O)C2CC2)c2ccccc2F)CCC1SC(C)=O (stereo not drawn) [Example 10(a), (E)-4-Acetylthio-1-(α-cyclopropylcarbonyl-2-fluorobenzyl)-3-ethoxycarbonylmethylidenepiperidine] | > 2.75 | > 2.75 | 88.6 | 97.2 | – | –
4 | O=C(O)/C=C1/CN(C(C(=O)C2CC2)c2ccccc2F)CCC1S (stereo not drawn) [Example 12, (Z)-1-(α-Cyclopropylcarbonyl-2-fluorobenzyl)-3-carboxymethylidene-4-mercaptopiperidine trifluoroacetate] | – | – | – | – | 41.2 | 68.9
5 | CCOC(=O)/C=C1\CN(C(C(=O)OC)c2ccccc2Cl)CCC1SC(C)=O (stereo not drawn) [Example 13, (E)-4-Acetylthio-1-(2-chloro-α-methoxycarbonylbenzyl)-3-ethoxycarbonylmethylidenepiperidine] | > 2.75 | > 2.75 | – | – | – | –
6 | CC(=O)SC1CCN(C(C(=O)C2CC2)c2ccccc2F)C/C1=C\C(=O)N(C)C (stereo not drawn) [Example 15(a), (E)-4-Acetylthio-1-(α-cyclopropylcarbonyl-2-fluorobenzyl)-3-(N,N-dimethylcarbamoyl)methylidenepiperidine] | 2.53 | > 2.75 | 18.6 | 95.9 | – | –
7 | CCCC(=O)SC1CCN(C(C(=O)C2CC2)c2ccccc2F)CC1 (stereo not drawn) [Example 18, 4-Butyrylthio-1-(α-cyclopropylcarbonyl-2-fluorobenzyl)piperidine] | 1.45 | 2.57 | – | 18.3 | – | –
8 | COC(=O)C(c1ccccc1F)N1CCC(SC(=O)c2ccccc2)CC1 (stereo not drawn) [Example 28, 4-Benzoylthio-1-(2-fluoro-α-methoxycarbonylbenzyl)piperidine] | 1.24 | 2.16 | – | 39.6 | – | –
